Source: patent publication US20210038732A1, “ANTICANCER MICRORNA AND LIPID FORMULATIONS THEREOF” (INTERNA TECHNOLOGIES B.V., priority 2018, published 2021)

Tests used:
[1] = tested on: orthotopic human Hep3b hepatocellular carcinoma tumors; assay: Tumor growth inhibition, orthotopic Hep3b model, AFP levels and tumor weights (Example 4.3); type: in vivo, mice; conditions: formulated in diamino lipid nanoparticles, iv
Protocol: Seven to 8 weeks old female SCID/Beige mice (Shanghai Lingchang Bio-Technology Co. Ltd, Shanghai, China) were orthotopically implanted with a single 2×2×2 mm piece of a subq grown Hep3b tumor into the left liver lobe. Mice were randomized based on day 21 AFP levels. At the time of randomization, the AFP levels (ng/ml plasma) ranged between 1019 and 19779 ng/ml (median 5203, IQR=2690-9498). Treatments started on day 22 and continued for three weeks (see Table 8 for dosing scheme). AFP was measured once a week (4 times in total), and BW was measured twice a week. At the end of the study tumor weights were also determined. QDx3, QDx5=one injection per day for three or five consecutive days; BIW=twice a week; BID=twice daily; po=per oral.

[2] = tested on: 4T1 mouse tumor cells; assay: 4T1 re-challenge of previously treated mice, with or without T-cell depletion (Example 4.11); type: in vivo
Excerpt: In all cases, monoclonal antibodies were delivered to mice by intraperitoneal injection in 200p1 phosphate-buffered saline. For depletion and neutralization experiments, CD4 (clone GK1.5) and CD8 (clone 2.43) antibodies were used simultaneously. Depletion or neutralization was commenced a week before tumor cell inoculation. For CD4+ and CD8+ T-cell depletion, […] of the indicated antibody was delivered on a QOD×3 schedule in the first week and then a Q3D schedule for 3 more weeks. Depletion of the desired T-cell population(s) was confirmed on whole blood by flow cytometry (data not shown). 100 μL whole blood was drawn per animal on day 0 and day 14 post tumor cell inoculation (day 0=24h post QOD×3, Day 14: 24h post QOD×3+Q3D for 2 weeks). Then mixed with the antibodies. After vortexing gently, the mix was incubated for 30 minutes in the dark at room temperature (RT). 2 ml of 1× FACS lysing buffer was added to the solution and incubated for 10 min at RT. Then the solution mix was centrifuged for 5 min and the supernatant was removed. Finally, the cells were resuspended in 150p1 of staining buffer and analyzed on a cytometer. All flow cytometry antibodies (anti-CD45-PerCP-cy55 (clone: 30-F11), anti-CD3-FITC (clone: 17A2) anti-CD4-APC (clone: RM4-4), anti-CD8-PE (clone: 53-6.7) were purchased from Biolegend except anti-CD3 from BD Biosciences. (QOD×3: every other day for 3 days, Q3D: every 3 days (Monday-Thursday)).
To investigate the T-cell mediated long-term immunity in miRNA-193a treated mice against 4T1 cancer cells, a new study with similar conditions to example 4.4 was performed. 5 days post-tumor inoculation, mice were randomized into 2 groups and received a similar treatment and dosing regimen as in example 4.4 (see Table 9, groups 1-2 only). After surgical removal of primary tumors when the group mean tumor volume reached 800 mm3, treatments were resumed and continued until day 58. […]

[3] = tested on: A549, H460, HEP3B, HUH7, A2058, BT549; assay: RNA-sequencing differential expression in six cancer cell lines; type: cell-based, human; conditions: for Down-regulated genes: adjusted P<0.1, 10 nM, 24h
Protocol: Six human cancer cell lines were cultured in appropriate media (Table 3) and seeded into 6-well plates 24h before transfection with 10 nM miRNA-193a-3p or mock using Lipofectamine RNAiMAX (Thermofisher). Reagents were aspirated 16h after transfection and cells were passaged into new 6-well plates. Media was aspirated 24h after transfection and plates were stored at −80° C. Three independent replicates were performed for each cell line.
RNA was isolated using the miRNeasy Mini kit (Qiagen). The procedure included on-column DNase treatment. RNA concentration was measured on NanodropOne. 150 ng of each independent replicate was pooled and 450 ng samples (Table) were submitted to GenomeScan BV (Leiden, The Netherlands).
PolyA enrichment was performed followed by next generation RNA-Sequencing using Illumina NovaSeq 6000 at GenomeScan BV. The data processing workflow included raw data quality control, adapter trimming, and alignment of short reads. The reference GRCh37.75.dna.primary_assembly was used for alignment of the reads for each sample. Based on the mapped locations in the alignment file the frequency of how often a read was mapped on a transcript was determined (feature counting). The counts were saved to count files, which serve as input for downstream RNA-Seq differential expression analysis.
Differential expression analysis was performed on the short read data set by GenomeScan BV. The read counts were loaded into the DESeq package v1.30.0, a statistical package within the R platform v3.4.4. DESeq was specifically developed to find differentially expressed genes between two conditions (mock versus miRNA-193a-3p) for RNA-Seq data with small sample size and over-dispersion. […]

How did the “TGI effects (AFP levels, tumor weights)” value [1] turn out when “miRNA-193a: duplex of the miRNA-193a-3p of SEQ ID NO: 218 (mimic, sense) with antisense strand SEQ ID NO: 219; naked in vitro, formulated in vivo (sense UGGGACUUUGUAGGCCAGUUTT; antisense AACUGGCCUACAAAGUCCCAGU; chemistry not given here; listed as Homo sapiens)” was run?
The value was “significant TGI effects”.

What about the “4T1 tumor growth after second re-challenge” value ([2]; previously treated mice depleted for T cells (anti-CD4 + anti-CD8)) of the same substance?
The value was “resulted in 4T1 tumor growth”.

What about the “4T1 tumor growth after second re-challenge” value ([2]; previously treated mice not depleted for T cells) of the same substance?
The value was “did not show a palpable 4T1 tumor”.

And the “Tumor re-growth after 4T1 re-challenge” value ([2]; re-challenge day 76, followed up to 3 weeks, vs naïve mice)?
Its value is “did not develop any palpable tumor”.

What about the “% Predicted” value ([3]; # cell lines =6) of the same substance?
The value was 83%.

What about the Down-regulated genes ([3]; # cell lines =6) of the same substance?
Its Down-regulated genes is 35.

What about the “% Predicted” value ([3]; # cell lines ≥1) of the same substance?
Its value is 58%.

What about the Down-regulated genes ([3]; # cell lines ≥1) of the same substance?
Its Down-regulated genes is 352.

And the “% Predicted” value ([3]; # cell lines ≥2)?
Its value is 65%.

And the Down-regulated genes ([3]; # cell lines ≥2)?
The Down-regulated genes was 282.

And the “% Predicted” value ([3]; # cell lines ≥3)?
Its value is 67%.

What about the Down-regulated genes ([3]; # cell lines ≥3) of the same substance?
The Down-regulated genes was 242.

And the “% Predicted” value ([3]; # cell lines ≥4)?
Its value is 66%.

What about the Down-regulated genes ([3]; # cell lines ≥4) of the same substance?
The Down-regulated genes was 218.

And the “% Predicted” value ([3]; # cell lines ≥5)?
Its value is 63%.

And the Down-regulated genes ([3]; # cell lines ≥5)?
Its Down-regulated genes is 181.
